Data on 17 compounds can be found in patent US8614201B2 (Janssen Pharmaceutica NV, priority 2009, dated 2013).

In this experiment the target is Human TRPA1 (Homo sapiens, UniProt O75762). The experiment in a line: Assay 1: In vitro cellular testing of TRPA1 modulation (CHO-TREx, Fluo-3 calcium fluorescence, AITC agonist). It is filed as cell-based. The arrangement: expressed in transfected cells; host or cells: CHO-TREx cells (Invitrogen), vector pcDNA4/TO. As to conditions: CHO-TREx cells expressing human TRPA1; Fluo-3 fluorescence (FLIPR/Tetra); agonist 15 μM allyl isothiocyanate (AITC); 30 minute antagonist incubation. The procedure:
Assay 1: In Vitro Cellular Testing of TRPA1 Modulation
Human TRPA1 (NCBI accession number NM_007332.1) was cloned into pcDNA4/TO. CHO-TREx cells (Invitrogen, Carlsbad, Calif.) were stably transfected with pcDNA4/TO-TRPA1 using lipofection to generate a clonal cell line that expressed human TRPA1 in a tetracycline-inducible manner. Culture medium used was Ham's F-12 supplemented with 10% fetal bovine serum, 2 mM L-glutamine, 5 μg/ml blasticidin and 200 μg/ml zeocin. Cells were seeded in black-walled clear-bottom 96-well plates at a density of 50,000 cells per well and cultured overnight at 37° C. with 5% CO2 in culture medium supplemented with 1 μg/ml tetracycline. On the day of the experiment, cells were washed 3 times with HEPES buffered saline (in mM: NaCl 137, MgCl2 0.5, KCl 2, dextrose 5, CaCl2 2 and HEPES 10; pH 7.4). Cells were then loaded with calcium-sensitive fluorescent dye by incubation in the presence of 4 μM Fluo-3 AM (TefLabs, Austin, Tex.) at room temperature in the dark for 60 minutes. After incubation with dye, cells were washed in assay buffer and, if appropriate, antagonists were added at this time. Following a further 30 minute incubation, cells were assayed using a Fluorometric Imaging Plate Reader (FLIPR™) or a Tetra (both manufactured by Molecular Devices, CA) to simultaneously monitor Fluo-3 fluorescence in all wells (λexcitation=488 nm, λemission=540 nm). Changes in fluorescence were monitored for 3 minutes after the addition of 15 μM allyl isothiocyanate (AITC) as an agonist. Concentration-dependence of receptor blocking was determined by exposing each well of cells in duplicate rows of a 96-well plate to a serial dilution of test compound. The concentration series usually started at 10 μM with a three-fold serial decrement in concentration. The magnitude of the response to agonist challenge was determined by measuring the fluorescence before and 3 minutes after the addition of the agonist. The degree of blocking was determined by comparing the response to that of negative (no added antagonist) and positive (10 μM ruthenium red) control wells. Data were analyzed using a non-linear regression program (Origin; OriginLab, MA) to fit the concentration-response data to a Hill function. Antagonist potencies were determined as the concentration required to produce 50% reduction in the response as compared to the negative and positive controls.

Structures are written as SMILES. pIC50: −log10 of the molar value.

Chain of Human TRPA1 (O75762 whole entry): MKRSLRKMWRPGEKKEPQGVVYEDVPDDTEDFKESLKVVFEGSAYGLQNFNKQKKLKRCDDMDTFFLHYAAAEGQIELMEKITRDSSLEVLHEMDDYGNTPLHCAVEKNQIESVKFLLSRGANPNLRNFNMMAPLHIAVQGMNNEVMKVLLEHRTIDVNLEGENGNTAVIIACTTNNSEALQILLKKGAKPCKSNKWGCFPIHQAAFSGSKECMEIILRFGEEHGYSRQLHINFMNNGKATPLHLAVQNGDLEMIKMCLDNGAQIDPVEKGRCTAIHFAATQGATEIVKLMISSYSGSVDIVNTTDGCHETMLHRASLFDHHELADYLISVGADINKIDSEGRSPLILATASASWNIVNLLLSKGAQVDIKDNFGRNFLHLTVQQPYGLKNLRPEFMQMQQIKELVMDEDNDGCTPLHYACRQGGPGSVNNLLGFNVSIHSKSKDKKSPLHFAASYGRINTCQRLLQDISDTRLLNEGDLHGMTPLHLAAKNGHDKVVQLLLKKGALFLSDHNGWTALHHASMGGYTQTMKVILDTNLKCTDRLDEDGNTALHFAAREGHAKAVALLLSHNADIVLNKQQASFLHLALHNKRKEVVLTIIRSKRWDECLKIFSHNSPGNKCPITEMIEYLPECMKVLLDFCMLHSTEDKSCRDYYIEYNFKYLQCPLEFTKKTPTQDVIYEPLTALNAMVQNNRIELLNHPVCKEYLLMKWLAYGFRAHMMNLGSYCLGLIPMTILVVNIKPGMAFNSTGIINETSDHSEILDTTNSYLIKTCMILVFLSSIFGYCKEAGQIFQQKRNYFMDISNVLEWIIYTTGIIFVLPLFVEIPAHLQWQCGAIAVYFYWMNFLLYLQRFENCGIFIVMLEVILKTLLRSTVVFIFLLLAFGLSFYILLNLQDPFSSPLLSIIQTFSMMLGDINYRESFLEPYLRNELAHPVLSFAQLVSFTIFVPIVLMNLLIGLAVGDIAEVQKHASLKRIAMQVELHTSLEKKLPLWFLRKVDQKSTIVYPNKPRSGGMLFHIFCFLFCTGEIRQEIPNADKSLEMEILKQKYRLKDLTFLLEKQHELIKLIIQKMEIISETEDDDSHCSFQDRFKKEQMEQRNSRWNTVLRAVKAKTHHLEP

Turning to `N[C@@H]1CCN(c2nc(CNC(=O)[C@@H]3CCCN3S(=O)(=O)c3ccc(Cl)s3)cc(-c3ccc(C(F)(F)F)cc3)n2)C1` [Example 40, 1-(5-Chloro-thiophene-2-sulfonyl)-pyrrolidine-2S-carboxylic acid [2-(3R-amino-pyrrolidin-1-yl)-6-(4-trifluoromethyl-phenyl)-pyrimidin-4-ylmethyl]-amide], the pIC50 (in general, the negative decadic logarithm of the IC50, by convention in mol/L) was 5.78.

With `CNC1CCN(c2nc(CNC(=O)[C@@H]3CCCN3S(=O)(=O)c3ccc(Cl)s3)cc(-c3ccc(C(F)(F)F)cc3)n2)C1` (stereo partly drawn) [Example 41, 1-(5-Chloro-thiophene-2-sulfonyl)-pyrrolidine-2S-carboxylic acid [2-(3-methylamino-pyrrolidin-1-yl)-6-(4-trifluoromethyl-phenyl)-pyrimidin-4-ylmethyl]-amide], the pIC50 is 5.53.

In the case of `CC(C)COc1nc(CNC(=O)[C@@H]2CCCN2S(=O)(=O)c2ccc(F)cc2)cc(-c2ccc(C(F)(F)F)cc2)n1` [Example 42, 1-(4-Fluoro-benzenesulfonyl)-pyrrolidine-2-carboxylic acid [2-isobutoxy-6-(4-trifluoromethyl-phenyl)-pyrimidin-4-ylmethyl]-amide], the pIC50 was 7.80.

Consider `CC(C)COc1nc(CNC(=O)[C@@H]2CCCN2S(=O)(=O)c2ccc(Cl)s2)cc(-c2ccc(C(F)(F)F)cc2)n1` [Example 43, 1-(5-Chloro-thiophene-2-sulfonyl)-pyrrolidine-2S-carboxylic acid [2-isobutoxy-6-(4-trifluoromethyl-phenyl)-pyrimidin-4-ylmethyl]-amide], for which the pIC50 is 8.40.

Turning to `CC(C)C1CCCN1c1nc(CNC(=O)[C@@H]2CCCN2S(=O)(=O)c2ccc(Cl)s2)cc(-c2ccc(C(F)(F)F)cc2)n1` (stereo partly drawn) [Example 44, 1-(5-Chloro-thiophene-2-sulfonyl)-pyrrolidine-2S-carboxylic acid [2-(2-isopropyl-pyrrolidin-1-yl)-6-(4-trifluoromethyl-phenyl)-pyrimidin-4-ylmethyl]-amide], the pIC50 was 7.92.

As for `CC(O)CNc1nc(CNC(=O)[C@@H]2CCCN2S(=O)(=O)c2ccc(Cl)s2)cc(-c2ccc(C(F)(F)F)cc2)n1` (stereo partly drawn) [Example 45, 1-(5-Chloro-thiophene-2-sulfonyl)-pyrrolidine-2S-carboxylic acid [2-(2-hydroxy-propylamino)-6-(4-trifluoromethyl-phenyl)-pyrimidin-4-ylmethyl]-amide], the pIC50 was 5.69.

As to `CC(C)(O)CNc1nc(CNC(=O)[C@@H]2CCCN2S(=O)(=O)c2ccc(Cl)s2)cc(-c2ccc(C(F)(F)F)cc2)n1` [Example 46, 1-(5-Chloro-thiophene-2-sulfonyl)-pyrrolidine-2S-carboxylic acid [2-(2-hydroxy-2-methyl-propylamino)-6-(4-trifluoromethyl-phenyl)-pyrimidin-4-ylmethyl]-amide], the pIC50 is 6.13.

In the case of `COc1nc(CNC(=O)[C@@H]2CCCN2S(=O)(=O)c2ccc(Cl)s2)cc(-c2ccc(C(F)(F)F)cc2)n1` [Example 47, 1-(5-Chloro-thiophene-2-sulfonyl)-pyrrolidine-2S-carboxylic acid [2-methoxy-6-(4-trifluoromethyl-phenyl)-pyrimidin-4-ylmethyl]-amide], the pIC50 is 7.85.

With `CC1CCCN1c1nc(CNC(=O)[C@@H]2CCCN2S(=O)(=O)c2ccc(Cl)s2)cc(-c2ccc(C(F)(F)F)cc2)n1` (stereo partly drawn) [Example 48, 1-(5-Chloro-thiophene-2-sulfonyl)-pyrrolidine-2S-carboxylic acid [2-(2-methyl-pyrrolidin-1-yl)-6-(4-trifluoromethyl-phenyl)-pyrimidin-4-ylmethyl]-amide], the pIC50 was 8.22.

For the compound `CCOc1nc(CNC(=O)[C@@H]2CCCN2S(=O)(=O)c2ccc(Cl)s2)cc(-c2ccc(C(F)(F)F)cc2)n1` [Example 49, 1-(5-Chloro-thiophene-2-sulfonyl)-pyrrolidine-2S-carboxylic acid [2-ethoxy-6-(4-trifluoromethyl-phenyl)-pyrimidin-4-ylmethyl]-amide], the pIC50 was 7.82.

For `O=C(NCc1cc(-c2ccc(C(F)(F)F)cc2)nc(N2CCN(Cc3ccccc3Cl)CC2)n1)[C@@H]1CCCN1S(=O)(=O)c1ccc(F)cc1` [Example 50, 1-(4-Fluoro-benzenesulfonyl)-pyrrolidine-2S-carboxylic acid [2-[4-(2-chloro-benzyl)-piperazin-1-yl]-6-(4-trifluoromethyl-phenyl)-pyrimidin-4-ylmethyl]-amide], the pIC50 is 7.44.

For the compound `O=C(NCc1cc(-c2ccc(C(F)(F)F)cc2)nc(N2CCN(Cc3ccccc3OC(F)(F)F)CC2)n1)[C@@H]1CCCN1S(=O)(=O)c1ccc(F)cc1` [Example 51, 1-(4-Fluoro-benzenesulfonyl)-pyrrolidine-2S-carboxylic acid [2-[4-(2-trifluoromethoxy-benzyl)-piperazin-1-yl]-6-(4-trifluoromethyl-phenyl)-pyrimidin-4-ylmethyl]-amide], the pIC50 was 6.83.

Regarding `CCc1ccccc1CN1CCN(c2nc(CNC(=O)[C@@H]3CCCN3S(=O)(=O)c3ccc(F)cc3)cc(-c3ccc(C(F)(F)F)cc3)n2)CC1` [Example 52, 1-(4-Fluoro-benzenesulfonyl)-pyrrolidine-2S-carboxylic acid [2-[4-(2-ethyl-benzyl)-piperazin-1-yl]-6-(4-trifluoromethyl-phenyl)-pyrimidin-4-ylmethyl]-amide], the pIC50 was 7.89.

Turning to `CC(=O)N(C)C1CCN(c2nc(CNC(=O)[C@@H]3CCCN3S(=O)(=O)c3ccc(Cl)s3)cc(-c3ccc(C(F)(F)F)cc3)n2)C1` (stereo partly drawn) [Example 53, 1-(5-Chloro-thiophene-2-sulfonyl)-pyrrolidine-2S-carboxylic acid [2-[3-(acetyl-methyl-amino)-pyrrolidin-1-yl]-6-(4-trifluoromethyl-phenyl)-pyrimidin-4-ylmethyl]-amide], the pIC50 was 6.37.

With `CCN(CC)C1CCN(c2nc(CNC(=O)[C@@H]3CCCN3S(=O)(=O)c3ccc(Cl)s3)cc(-c3ccc(C(F)(F)F)cc3)n2)C1` (stereo partly drawn) [Example 54, 1-(5-Chloro-thiophene-2-sulfonyl)-pyrrolidine-2S-carboxylic acid [2-(3-diethylamino-pyrrolidin-1-yl)-6-(4-trifluoromethyl-phenyl)-pyrimidin-4-ylmethyl]-amide], the pIC50 was 5.97.

In the case of `CC(C)N1CCC(CN(C)c2nc(CNC(=O)[C@@H]3CCCN3S(=O)(=O)c3ccc(Cl)s3)cc(-c3ccc(C(F)(F)F)cc3)n2)CC1` [Example 55, 1-(5-Chloro-thiophene-2S-sulfonyl)-pyrrolidine-2S-carboxylic acid [2-[(1-isopropyl-piperidin-4-ylmethyl)-methyl-amino]-6-(4-trifluoromethyl-phenyl)-pyrimidin-4-ylmethyl]-amide], the pIC50 was 5.59.

For `CC(C)CN1CCN(c2nc(CNC(=O)[C@@H]3C=CCN3S(=O)(=O)c3ccc(Cl)s3)cc(-c3ccc(C(F)(F)F)cc3)n2)CC1` [Example 56, 1-(5-Chloro-thiophene-2-sulfonyl)-2,5-dihydro-1H-pyrrole-2S-carboxylic acid [2-(4-isobutyl-piperazin-1-yl)-6-(4-trifluoromethyl-phenyl)-pyrimidin-4-ylmethyl]-amide], the pIC50 was 7.29.
